Results published in ChEMBL document CHEMBL4622839, “Induction of enantio-selective apoptosis in human leukemia HL-60 cells by (S)-erypoegin K, an isoflavone isolated from Erythrina poeppigiana” (Bioorg Med Chem, 2020).
pIC50: −log10 of the molar value. The source made the active and inactive calls. No cut-off for these calls is given here.

Key:
HL-60 [1] = assay: Induction of apoptosis in human HL60 cells assessed as DNA ladder formation at 1 to 3 uM incubated for 5 hrs by agarose gel electrophoresis method; format: functional, cell-based
HL-60 [2] = assay: Antiproliferative activity against human HL60 cells assessed as inhibition of cell viability incubated for 48 hrs by MTS assay; format: functional, cell-based; details: for pIC50: HL-60, 48 h
HL-60 [3] = assay: Induction of apoptosis in human HL60 cells assessed as nuclear condensation/fragmentation at 5 uM incubated for 6 hrs by Hoechst 33342 staining-based fluorescence microscopic method; format: functional, cell-based
Lactoylglutathione lyase = Lactoylglutathione lyase (Homo sapiens, UniProt Q04760); assay: Inhibition of recombinant human Glyoxalase-1 expressed in Escherichia coli BL21 (DE3) assessed as inhibition of S-D-lactoylglutathione formation using MG and reduced glutathione as substrate measured for 2 mins by spectrophotometric method
Lactoylglutathione lyase, sequence (Q04760 whole entry): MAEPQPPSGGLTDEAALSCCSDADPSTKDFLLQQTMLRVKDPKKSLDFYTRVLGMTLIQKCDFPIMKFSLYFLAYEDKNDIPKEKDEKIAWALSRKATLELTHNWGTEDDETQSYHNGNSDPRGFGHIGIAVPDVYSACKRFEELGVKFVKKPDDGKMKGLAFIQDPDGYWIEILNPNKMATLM

Homo sapiens = species: Homo sapiens; assay: Selectivity index, ratio of IC50 for recombinant human Glyoxalase-1 expressed in Escherichia coli BL21 (DE3) to IC50 for antiproliferative activity against human HL60 cells
HL-60 [4] = assay: Antiproliferative activity against human HL60 cells assessed as inhibition of cell viability up to 50 uM incubated for 48 hrs by MTS assay; format: functional, cell-based
HL-60 [5] = assay: Induction of apoptosis in human HL60 cells assessed as caspase 9 activation at 0.1 to 0.5 uM incubated up to 24 hrs by flurometric analysis; format: functional, cell-based
HL-60 [6] = assay: Induction of apoptosis in human HL60 cells assessed as caspase 3 activation at 0.1 to 0.5 uM incubated up to 24 hrs by flurometric analysis; format: functional, cell-based
HL-60 [7] = assay: Induction of apoptosis in human HL60 cells assessed as increase in MG level accumulation at 1 to 3 uM incubated for 8 to 24 hrs by HLPC analysis; format: functional, cell-based

| SMILES | Activity (HL-60 [1]) | pIC50 (HL-60 [2]) | Activity (HL-60 [3]) | pIC50 (Lactoylglutathione lyase) | Ratio IC50 (Homo sapiens) | Activity (HL-60 [4]) | Activity (HL-60 [5]) | Activity (HL-60 [6]) | Activity (HL-60 [2]) | Activity (HL-60 [7]) |
| --- | --- | --- | --- | --- | --- | --- | --- | --- | --- | --- |
| CC(C)(O)[C@@H]1Cc2c(cc(O)c3c(=O)c(-c4ccc(O)cc4)coc23)O1 | Active | 7.05 | Active | 4.00 | – | – | – | – | – | – |
| CC(C)(O)C1Cc2c(cc(O)c3c(=O)c(-c4ccc(O)cc4)coc23)O1 (racemic) | – | 6.76 | – | 3.96 | 625 | – | – | – | – | – |
| CC(C)(O)[C@H]1Cc2c(cc(O)c3c(=O)c(-c4ccc(O)cc4)coc23)O1 | inactive | – | inactive | 4.00 | – | inactive | inactive | inactive | inactive | inactive |
